Test results from paper PMC12738789, “Synthesis of an enhanced nanobiocatalyst system from Aspergillus niger as single green source” (Scientific Reports, 2025).

Tested on: T1, Aspergillus niger ATCC 16,878 lipase
T1 construct: gene lipA
Experiment: spectrophotometric p-nitrophenol release at […] nm, nonlinear Michaelis-Menten fit
Assay type: biochemical
Conditions: free enzyme; 0.1-1 mM pNPP; standard assay 0.1 M potassium phosphate pH 7.5, 37 °C, 2% Triton X-100

- Km: 147 µM
SMILES: CCCCCCCCCCCCCCCC(=O)Oc1ccc([N+](=O)[O-])cc1 [4-nitrophenyl palmitate]
